Reference: patent US11603355B2, “Charged ion channel blockers and methods for use” (Nocion Therapeutics, Inc., priority 2019, dated 2023)
Structures can show the parent of a compound that is named as a salt.

Key:
[1] = PAMPA membrane permeability assay; assay type: in vitro ADME; conditions: permeability coefficient, pH 7.4 buffer, GIT lipid, 4 hours incubation
Outline: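 Passive diffusion across a GIT-lipid-painted artificial membrane at pH 7.4, with a 50 uM donor stock diluted from DMSO and a 4 h incubation. UV spectra of the donor, acceptor and reference plates were read, and the permeability coefficient was calculated from the AUCs, in 10^−6 cm/s.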

[2] = biological target: T1, NaV1.7 (Homo sapiens, UniProt Q15858); assay: Automated patch clamp (Qube 384), external block of NaV1.7; assay type: cell-based; conditions: IC50, compound in external solution, HEK293 cells, read-out: Nav1.7 Extracellular Inhibition
T1 construct: expressed in transfected cells; host or cells: HEK293 (tetracycline-inducible)
T1 sequence (Q15858 whole entry): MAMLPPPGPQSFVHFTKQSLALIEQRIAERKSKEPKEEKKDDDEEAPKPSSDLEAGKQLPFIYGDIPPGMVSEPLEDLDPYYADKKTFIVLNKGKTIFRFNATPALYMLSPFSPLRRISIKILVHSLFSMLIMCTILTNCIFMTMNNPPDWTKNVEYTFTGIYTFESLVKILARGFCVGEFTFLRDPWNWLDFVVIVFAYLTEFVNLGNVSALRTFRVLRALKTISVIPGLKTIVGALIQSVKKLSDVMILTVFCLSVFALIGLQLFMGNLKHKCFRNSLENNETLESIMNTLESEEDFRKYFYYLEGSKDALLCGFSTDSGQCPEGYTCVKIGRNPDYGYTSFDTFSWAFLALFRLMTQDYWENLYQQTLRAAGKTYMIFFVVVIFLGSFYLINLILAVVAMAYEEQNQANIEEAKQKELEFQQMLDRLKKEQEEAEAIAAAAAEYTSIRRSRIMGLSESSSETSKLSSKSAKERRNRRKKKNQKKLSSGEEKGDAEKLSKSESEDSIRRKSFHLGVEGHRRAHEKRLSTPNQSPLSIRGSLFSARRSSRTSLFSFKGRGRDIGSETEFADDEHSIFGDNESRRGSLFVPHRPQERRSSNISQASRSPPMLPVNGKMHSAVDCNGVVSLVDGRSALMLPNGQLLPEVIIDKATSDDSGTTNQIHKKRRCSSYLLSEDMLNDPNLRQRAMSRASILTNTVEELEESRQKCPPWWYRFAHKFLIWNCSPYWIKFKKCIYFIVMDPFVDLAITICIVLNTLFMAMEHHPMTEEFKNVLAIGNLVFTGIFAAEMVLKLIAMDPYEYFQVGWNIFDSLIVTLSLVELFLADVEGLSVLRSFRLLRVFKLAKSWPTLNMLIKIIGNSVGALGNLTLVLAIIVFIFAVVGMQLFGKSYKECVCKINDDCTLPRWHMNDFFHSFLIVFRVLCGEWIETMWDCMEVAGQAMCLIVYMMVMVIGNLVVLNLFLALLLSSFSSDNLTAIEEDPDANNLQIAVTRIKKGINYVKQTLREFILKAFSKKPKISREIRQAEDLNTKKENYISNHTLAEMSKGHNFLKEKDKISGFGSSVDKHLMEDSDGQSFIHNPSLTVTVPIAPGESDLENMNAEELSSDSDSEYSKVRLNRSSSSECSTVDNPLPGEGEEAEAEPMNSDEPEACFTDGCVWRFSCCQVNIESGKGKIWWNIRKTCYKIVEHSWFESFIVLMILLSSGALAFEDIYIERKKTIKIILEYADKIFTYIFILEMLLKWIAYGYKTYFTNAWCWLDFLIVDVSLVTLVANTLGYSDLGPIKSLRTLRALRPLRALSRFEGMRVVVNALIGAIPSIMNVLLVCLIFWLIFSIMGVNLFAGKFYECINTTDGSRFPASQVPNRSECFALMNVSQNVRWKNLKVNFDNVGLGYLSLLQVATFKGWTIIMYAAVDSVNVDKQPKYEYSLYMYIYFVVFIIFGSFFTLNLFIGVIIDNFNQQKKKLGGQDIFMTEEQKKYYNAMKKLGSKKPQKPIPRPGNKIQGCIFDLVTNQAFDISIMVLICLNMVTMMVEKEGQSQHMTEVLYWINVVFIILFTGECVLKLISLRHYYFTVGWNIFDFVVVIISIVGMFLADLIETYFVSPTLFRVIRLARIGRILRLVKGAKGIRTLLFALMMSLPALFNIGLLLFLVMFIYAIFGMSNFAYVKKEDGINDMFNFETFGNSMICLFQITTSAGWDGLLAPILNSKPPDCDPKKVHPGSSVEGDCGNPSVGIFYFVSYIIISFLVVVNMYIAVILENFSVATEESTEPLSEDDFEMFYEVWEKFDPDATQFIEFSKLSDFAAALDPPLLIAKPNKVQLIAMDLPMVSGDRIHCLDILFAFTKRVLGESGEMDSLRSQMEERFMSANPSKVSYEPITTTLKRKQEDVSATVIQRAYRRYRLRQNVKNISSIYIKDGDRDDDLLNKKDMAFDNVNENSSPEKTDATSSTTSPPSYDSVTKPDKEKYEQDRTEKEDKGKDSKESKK
Method: NaV1.7 was expressed in HEK293 cells upon induction with tetracycline. Cells were cultured in DMEM containing 10% dialyzed Fetal Bovine Serum (VWR, Radnor, Pa.), 1% Glutamax (VWR, Radnor, Pa.), 1% Penicillin-Streptomycin (VWR, Radnor, Pa.), 100 mg/L Hygromycin (Thermo Fisher Scientific, Waltham, Mass. and 5 mg/L Blasticidin (Alfa Aesar, Haverhill, Mass.). Cells were grown and maintained at 37° C. in a humidified environment containing 10% CO2 in air. Cells were detached from the culture flask for passage and harvested using 0.05% Trypsin-EDTA (Thermo Fisher Scientific, Waltham, Mass.). To induce NaV1.7, cells were induced with tetracycline (0.1-1 μg/mL, IBI Scientific, Peosta, Iowa) the day before recording.
Before experiments, cells were washed with DPBS (VWR, Radnor, Pa.), digested with Detachin (VWR Radnor, Pa.) and then triturated 10 times in CHO Serum-Free Media (VWR Radnor, Pa.) to resuspend the cells and to break apart cell aggregates. Cells were counted and the final concentration was set at 2-5 million cells per mL.
The intracellular solution contained the following: 140 mM CsF, 1 mM/5 mM EGTA/CsOH, 10 mM HEPES, 10 mM NaCl, adjusted to pH 7.3 with CsOH, and osmolality to 320 with OSM solution. The external solution contained the following: 145 mM NaCl, 4 mM KCl, 1 mM MgCl2, 2 mM CaCl2), 10 mM HEPES, 10 mM Glucose, adjusted to pH 7.4 with CsOH and osmolality to 305 with OSM solution. The OSM solution was a normal Ringer solution containing (in mM) NaCl 155, HEPES 10, sucrose, KCl 3.5, CaCl2) 1.5, MgCl2 1 adjusted to pH 7.4 with NaOH. All chemicals are from Sigma-Aldrich, St. Louis, Mo. In order to test the degree of internal block by test compounds, the compounds were dissolved in internal solution at the indicated test concentration. […] In order to test the degree of external block by test compounds the compounds were dissolved in external solution at the indicated test concentration.
Automated Patch Clamps were performed on Qube 384 (Sophion Bioscience, Woburn Mass.) with multihole Qchips at a temperature setting of 22 degrees. The whole cells configuration was formed with default Qube seal and break-in parameter. The membrane potential was held at −100 mV before the voltage protocol began. Two voltage protocols were followed.
Step 1: Cells were held at −100 mV with a depolarized pulse to −20 mV for 10 ms, the interval was set at 5 s. Currents were corrected by default leak subtraction from every pulse. The duration was set at 5 mins.
Step 2: Cells were held at −100 mV with a depolarized pulse to −20 mV for 10 ms. The frequency was 5 Hz. Currents were corrected by leak subtraction calculated before step 2. The duration was set at 4 mins.
After Step 2, the external solution was changed with solutions containing test compounds. Qchips were held at −100 mV without pulsing. The total solution switching time was 8 minutes. After the external solution exchange, cells were recorded using the same procedure as step 2 for 10 minutes.
Data analysis was performed by Sophion Analyzer. Data were corrected with control cells (Non-Drug). The IC50 data were plotted with DR-plots/Hill function (a dose-response plot with a Hill fit). Representative examples of the invention were tested for extracellular inhibition of NaV 1.7 in the automated patch clamp assay. Activity Range is reported as IC50: “++++” ([…], “+++” (1-3 μM), “++” ([…]) or “+” (>10 μM). The results are presented below.

Molecule	PAMPA (10^−6 cm/s) [1]	IC50 [2]
Cc1cccc(C)c1N1CCC([N+]2(Cc3ccccc3)CCCCC2)C1=O.[Br-] (centres unmarked) [Compound 89A, 1-benzyl-1-(1-(2,6-dimethylphenyl)-2-oxopyrrolidin-3-yl)piperidin-1-ium bromide]	++ (“++” (0.1-2.0 10^−6 cm/s))	> 10 µM
CCOC(=O)C1CCC[N+](CC(=O)Nc2c(C)cccc2C)(Cc2ccccc2)C1.[Br-] (centres unmarked) [Compound 45A, 1-benzyl-1-(2-((2,6-dimethylphenyl)amino)-2-oxoethyl)-3-(ethoxycarbonyl) piperidin-1-ium bromide]	+ (“+” (<0.1 10^−6 cm/s))	> 10 µM
Cc1cccc(C#N)c1NC(=O)C[N+]1(Cc2ccccc2)CCCCCC1.[Br-] [Compound 72A]	+ (“+” (<0.1 10^−6 cm/s))	–
Cc1cccc(C)c1N(C)C(=O)C[N+]1(Cc2ccccc2)CCCCCC1 [Compound 38A, 1-benzyl-1-(2-((2,6-dimethylphenyl) (methyl)amino)-2-oxoethyl) azepan-1-ium formate]	+ (“+” (<0.1 10^−6 cm/s))	> 10 µM
Cc1cccc(-c2ccccc2)c1NC(=O)C[N+]1(Cc2ccccc2)CCCCCC1.[Br-] [Compound 76A]	+ (“+” (<0.1 10^−6 cm/s))	–
Cc1cccc(C(C)C)c1NC(=O)C[N+]1(Cc2ccccc2)CCCCCC1.[Br-] [Compound 74A]	+ (“+” (<0.1 10^−6 cm/s))	–
Cc1cccc(C)c1NC(=O)C[N+]1(Cc2ccccc2)CCCC(C(=O)OC(C)C)C1 (mixture of isomers) [Compound 46A, 1-benzyl-1-(2-((2,6-dimethylphenyl)amino)-2-oxoethyl)-3-(isopropoxycarbonyl) piperidin-1-ium trifluoroacetate salt]	+ (“+” (<0.1 10^−6 cm/s))	3 to 10 µM
CCCOC(=O)N1CCC[N+](CC(=O)Nc2c(C)cccc2C)(Cc2ccccc2)CC1.[Br-] (centres unmarked) [Compound 68A, 1-benzyl-1-(2-((2,6-dimethylphenyl)amino)-2-oxoethyl)-4-(propoxycarbonyl)-1,4-diazepan-1-ium bromide]	+ (“+” (<0.1 10^−6 cm/s))	> 10 µM
CCCNC(=O)C1CCC[N+](CC(=O)Nc2c(C)cccc2C)(Cc2ccccc2)C1 (centres unmarked) [Compound 57A]	+ (“+” (<0.1 10^−6 cm/s))	3 to 10 µM
Cc1cccc(C)c1NC(=O)C[N+]1(Cc2ccccc2)CCCC(C(=O)N(C)C)C1.[Br-] (centres unmarked) [Compound 65A]	+ (“+” (<0.1 10^−6 cm/s))	–
1-benzyl-1-(2-((2-(dimethylcarbamoyl)-6-methylphenyl) amino)-2-oxoethyl) azepan-1-ium bromide [Compound 81A]	+ (“+” (<0.1 10^−6 cm/s))	> 10 µM
COC(=O)c1ccccc1C[N+]1(CC(=O)Nc2c(C)cccc2C)CCCCC1.[Br-] [Compound 37A, 1-(2-((2,6-dimethylphenyl)amino)-2-oxoethyl)-1-(2-(methoxycarbonyl)benzyl) piperidin-1-ium bromide]	+ (“+” (<0.1 10^−6 cm/s))	> 10 µM
[2H]c1c([2H])c([2H])c(C[N+]2(CC(=O)Nc3c(C)cccc3C)CCCCCC2)c([2H])c1[2H].[Cl-] [Compound 33A, 1-(2-((2,6-dimethylphenyl)amino)-2-oxoethyl)-1-((phenyl-d5)methyl) azepan-1-ium chloride]	+ (“+” (<0.1 10^−6 cm/s))	–
Cc1cccc(C)c1NC(=O)C[N+]1(Cc2ccccc2)CCCC(C(=O)NC(C)C)C1 (centres unmarked) [Compound 56A]	+ (“+” (<0.1 10^−6 cm/s))	–

Now from value to molecule:

PAMPA (10^−6 cm/s) [1]	IC50 [2]	Molecule
+ (“+” (<0.1 10^−6 cm/s))	–	CCC(=O)OC1CCC[N+](CC(=O)Nc2c(C)cccc2C)(Cc2ccccc2)C1.[Br-] (centres unmarked) [Compound 52A, 1-benzyl-1-(2-((2,6-dimethylphenyl)amino)-2-oxoethyl)-3-(propionyloxy) piperidin-1-ium bromide]
+ (“+” (<0.1 10^−6 cm/s))	> 10 µM	Cc1cccc(C)c1NC(=O)C[N+]1(Cc2ccccc2)CCCC(C(N)=O)C1.[Br-] (mixture of isomers) [Compound 53A, 1-benzyl-3-carbamoyl-1-(2-((2,6-dimethylphenyl)amino)-2-oxoethyl) piperidin-1-ium bromide]
+ (“+” (<0.1 10^−6 cm/s))	–	COc1cccc(C)c1NC(=O)C[N+]1(Cc2ccccc2)CCCCCC1 [Compound 71A]
+ (“+” (<0.1 10^−6 cm/s))	3 to 10 µM	Cc1cccc(C)c1C(=O)OCC[N+]1(Cc2ccccc2)CCCCCC1.[Br-] [Compound 82A, 1-benzyl-1-(2-((2,6-dimethylbenzoyl)oxy)ethyl) azepan-1-ium bromide]
+ (“+” (<0.1 10^−6 cm/s))	3 to 10 µM	Cc1cccc(C)c1N1CCC([N+]2(Cc3ccccc3)CCCCCCC2)C1=O.[Br-] (centres unmarked) [Compound 90A]
+ (“+” (<0.1 10^−6 cm/s))	> 10 µM	CCNC(=O)C1CCC[N+](CC(=O)Nc2c(C)cccc2C)(Cc2ccccc2)C1.[Br-] (centres unmarked) [Compound 54A, 1-benzyl-1-(2-((2,6-dimethylphenyl)amino)-2-oxoethyl)-3-(ethylcarbamoyl) piperidin-1-ium bromide]
+ (“+” (<0.1 10^−6 cm/s))	> 10 µM	COC(=O)C1CC[N+](CC(=O)Nc2c(C)cccc2C)(Cc2ccccc2)CC1.[Br-] (centres unmarked) [Compound 44A, 1-benzyl-1-(2-((2,6-dimethylphenyl)amino)-2-oxoethyl)-4-(methoxycarbonyl) piperidin-1-ium bromide]
+ (“+” (<0.1 10^−6 cm/s))	> 10 µM	Cc1cccc(C)c1NC(=O)C[N+]1(Cc2ccccc2)CCCC(F)(F)C1.[Br-] (centres unmarked) [Compound 32A, 1-benzyl-1-(2-((2,6-dimethylphenyl)amino)-2-oxoethyl)-3,3-difluoropiperidin-1-ium bromide]
+ (“+” (<0.1 10^−6 cm/s))	> 10 µM	CCC(=O)Oc1cccc(C)c1NC(=O)C[N+]1(Cc2ccccc2)CCCCCC1.[Br-] [Compound 80A, 1-benzyl-1-(2-((2-methyl-6-(propionyloxy)phenyl)amino)-2-oxoethyl) azepan-1-ium bromide]
+ (“+” (<0.1 10^−6 cm/s))	> 10 µM	Cc1cccc(C)c1N1CCCC([N+]2(Cc3ccccc3)CCCC2)C1=O.[Br-] (centres unmarked) [Compound 91A, 1-benzyl-1-(1-(2,6-dimethylphenyl)-2-oxopiperidin-3-yl) pyrrolidin-1-ium bromide]
+ (“+” (<0.1 10^−6 cm/s))	1 to 3 µM	CCOc1cccc(C)c1NC(=O)C[N+]1(Cc2ccccc2)CCCCCC1.[Br-] [Compound 77A]
++ (“++” (0.1-2.0 10^−6 cm/s))	3 to 10 µM	Cc1cccc(F)c1NC(=O)C[N+]1(Cc2ccccc2)CCCCCC1.[Br-] [Compound 69A, 1-benzyl-1-(2-((2-fluoro-6-methylphenyl)amino)-2-oxoethyl)azepan-1-ium bromide]
+ (“+” (<0.1 10^−6 cm/s))	3 to 10 µM	CCCc1cccc(C)c1NC(=O)C[N+]1(Cc2ccccc2)CCCCCC1.[Br-] [Compound 75A]
+ (“+” (<0.1 10^−6 cm/s))	> 10 µM	COC(=O)c1cccc(C[N+]2(CC(=O)Nc3c(C)cccc3C)CCCCC2)c1.[Br-] [Compound 35A, 1-(2-((2,6-dimethylphenyl)amino)-2-oxoethyl)-1-(3-(methoxycarbonyl)benzyl) piperidin-1-ium bromide]
+ (“+” (<0.1 10^−6 cm/s))	> 10 µM	Cc1cccc(C)c1NC(=O)C[N+]1(Cc2ccccc2)CCCC(C(=O)N2CCCC2)C1 (centres unmarked) [Compound 62A]
